pIC50: −log10 of the molar value. Where two headings read alike, the source gives them in different places.
Molecular target: BTK (Homo sapiens (Human), UniProt Q06187)
Test: Btk in vitro inhibitory activity (one of Method A TR-FRET, Method B electrophoretic mobility shift, Method C radiometric filter binding)
Assay type: biochemical
[1] = determined using one of the methods of Example 355a, 355b and 355c, read-out: BTK IC50

Chain of BTK (Q06187 whole entry): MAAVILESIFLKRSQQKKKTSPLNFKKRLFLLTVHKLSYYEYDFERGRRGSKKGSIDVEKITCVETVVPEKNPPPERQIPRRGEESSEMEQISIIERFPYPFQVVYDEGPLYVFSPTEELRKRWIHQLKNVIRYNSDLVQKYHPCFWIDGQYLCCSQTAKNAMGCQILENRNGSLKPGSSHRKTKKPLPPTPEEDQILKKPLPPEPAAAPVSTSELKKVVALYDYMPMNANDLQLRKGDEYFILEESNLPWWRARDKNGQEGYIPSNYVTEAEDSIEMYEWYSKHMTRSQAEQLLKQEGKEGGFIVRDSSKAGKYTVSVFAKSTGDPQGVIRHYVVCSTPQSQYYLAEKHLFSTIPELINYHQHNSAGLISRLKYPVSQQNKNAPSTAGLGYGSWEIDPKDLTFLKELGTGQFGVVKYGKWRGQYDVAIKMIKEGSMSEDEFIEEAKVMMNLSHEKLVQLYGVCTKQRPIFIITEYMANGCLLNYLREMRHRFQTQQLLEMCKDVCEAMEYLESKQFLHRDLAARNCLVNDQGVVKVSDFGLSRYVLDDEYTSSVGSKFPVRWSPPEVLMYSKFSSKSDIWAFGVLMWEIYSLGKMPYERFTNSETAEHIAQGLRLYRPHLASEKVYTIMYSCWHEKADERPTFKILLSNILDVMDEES

| pIC50 [1] | Structure (SMILES) | pIC50 |
| --- | --- | --- |
| 7.00 to 8.00 | NC(=O)c1nnc(N2CCC[C@@H](NC(=O)C3CCN(C4CCCC4)CC3)C2)nc1Nc1ccc(C(=O)N2CCOCC2)cc1 [Example 33, (R)-3-(3-(1-cyclopentylpiperidine-4-carboxamido)piperidin-1-yl)-5-(4-(morpholine-4-carbonyl)phenylamino)-1,2,4-triazine-6-carboxamide] | – |
| 7.00 to 8.00 | NC(=O)c1nnc(N2CCC[C@@H](NC(=O)N3CCC(N4CCCCC4)CC3)C2)nc1Nc1ccc(C(=O)N2CCOCC2)cc1 [Example 37, (R)—N-(1-(6-carbamoyl-5-(4-(morpholine-4-carbonyl)phenylamino)-1,2,4-triazin-3-yl)piperidin-3-yl)-1,4′-bipiperidine-1′-carboxamide] | – |
| 7.00 to 8.00 | CN(C(=O)N[C@@H]1CCCN(c2nnc(C(N)=O)c(Nc3ccc(C(=O)N4CCOCC4)cc3)n2)C1)c1ccccc1 [Example 39, (R)-3-(3-(3-methyl-3-phenylureido)piperidin-1-yl)-5-(4-(morpholine-4-carbonyl)phenylamino)-1,2,4-triazine-6-carboxamide] | – |
| 7.00 to 8.00 | NC(=O)c1nnc(N2CCC[C@@H](N3CCCC3=O)C2)nc1Nc1ccc(C(=O)N2CCOCC2)cc1 [Example 44, (R)-5-(4-(morpholine-4-carbonyl)phenylamino)-3-(3-(2-oxopyrrolidin-1-yl)piperidin-1-yl)-1,2,4-triazine-6-carboxamide] | – |
| 6.00 to 7.00 | NC(=O)c1nnc(N2CCC[C@@H](Oc3nccc4ccccc34)C2)nc1Nc1ccc(C(=O)N2CCOCC2)cc1 [Example 45, (R)-3-(3-(isoquinolin-1-yloxy)piperidin-1-yl)-5-(4-(morpholine-4-carbonyl)phenylamino)-1,2,4-triazine-6-carboxamide] | – |
| 6.00 to 7.00 | CC(C)(C)c1ccc(C(=O)N[C@@H]2CCCN(c3nnc(C(N)=O)c(Nc4cncc(F)c4)n3)C2)cc1 [Example 52, (R)-3-(3-(4-tert-butylbenzamido)piperidin-1-yl)-5-(5-fluoropyridin-3-ylamino)-1,2,4-triazine-6-carboxamide] | – |
| 5.00 to 6.00 | Cc1ccc(Nc2nc(N3CCC[C@@H](NC(=O)c4ccc(C(C)(C)C)cc4)C3)nnc2C(N)=O)cc1 [Example 53, (R)-3-(3-(4-tert-butylbenzamido)piperidin-1-yl)-5-(p-tolylamino)-1,2,4-triazine-6-carboxamide] | – |
| 6.00 to 7.00 | CC(C)(C)OC(=O)N1CCC[C@@H](Nc2nnc(C(N)=O)c(Nc3ccc(C(=O)N4CCOCC4)cc3)n2)C1 [Example 60, (R)-tert-butyl 3-(6-carbamoyl-5-(4-(morpholine-4-carbonyl)phenylamino)-1,2,4-triazin-3-ylamino)piperidine-1-carboxylate] | – |
| 5.00 to 6.00 | NC(=O)c1nnc(N[C@@H]2CCCNC2)nc1Nc1ccc(C(=O)N2CCOCC2)cc1 [Example 61, (R)-5-(4-(morpholine-4-carbonyl)phenylamino)-3-(piperidin-3-ylamino)-1,2,4-triazine-6-carboxamide] | – |
| 7.00 to 8.00 | CC(C)(C)c1ccc(C(=O)N2CCC[C@@H](Nc3nnc(C(N)=O)c(Nc4ccc(C(=O)N5CCOCC5)cc4)n3)C2)cc1 [Example 62, (R)-3-(1-(4-tert-butylbenzoyl)piperidin-3-ylamino)-5-(4-(morpholine-4-carbonyl)phenylamino)-1,2,4-triazine-6-carboxamide] | – |
| > 8.00 | CCC(=O)N1CCC[C@@H](Nc2nnc(C(N)=O)c(Nc3ccc(C(=O)N4CCOCC4)cc3)n2)C1 [Example 63, (R)-5-(4-(morpholine-4-carbonyl)phenylamino)-3-(1-propionylpiperidin-3-ylamino)-1,2,4-triazine-6-carboxamide] | – |
| > 8.00 | CN(C)C/C=C/C(=O)N1CCC[C@@H](Nc2nnc(C(N)=O)c(Nc3ccc(C(=O)N4CCOCC4)cc3)n2)C1 [Example 66, (R,E)-3-(1-(4-(dimethylamino)but-2-enoyl)piperidin-3-ylamino)-5-(4-(morpholine-4-carbonyl)phenylamino)-1,2,4-triazine-6-carboxamide] | – |

Continued, compound first:

| Structure (SMILES) | pIC50 [1] | pIC50 |
| --- | --- | --- |
| NC(=O)c1nnc(N2CCC[C@@H](NC(=O)C3CCN(C4CC4)CC3)C2)nc1Nc1ccc(C(=O)N2CCOCC2)cc1 [Example 32, (R)-3-(3-(1-cyclopropylpiperidine-4-carboxamido)piperidin-1-yl)-5-(4-(morpholine-4-carbonyl)phenylamino)-1,2,4-triazine-6-carboxamide] | 7.00 to 8.00 | – |
| NC(=O)c1nnc(N2CCC[C@@H](NC(=O)N3CCCC3)C2)nc1Nc1ccc(C(=O)N2CCOCC2)cc1 [Example 35, (R)-5-(4-(morpholine-4-carbonyl)phenylamino)-3-(3-(pyrrolidine-1-carboxamido)piperidin-1-yl)-1,2,4-triazine-6-carboxamide] | 7.00 to 8.00 | – |
| NC(=O)c1nnc(N2CCC[C@@H](NC(=O)N3CCOCC3)C2)nc1Nc1ccc(C(=O)N2CCOCC2)cc1 [Example 38, (R)—N-(1-(6-carbamoyl-5-(4-(morpholine-4-carbonyl)phenylamino)-1,2,4-triazin-3-yl)piperidin-3-yl)morpholine-4-carboxamide] | 7.00 to 8.00 | – |
| NC(=O)c1nnc(N2CCC[C@@H](NS(=O)(=O)c3ccccc3)C2)nc1Nc1ccc(C(=O)N2CCOCC2)cc1 [Example 41, (R)-5-(4-(morpholine-4-carbonyl)phenylamino)-3-(3-(phenylsulfonamido)piperidin-1-yl)-1,2,4-triazine-6-carboxamide] | > 8.00 | – |
| CC(C)OC(=O)NN(C(=O)OC(C)C)[C@@H]1CCCN(c2nnc(C(N)=O)c(Nc3ccc(C(=O)N4CCOCC4)cc3)n2)C1 [Example 46, (R)-diisopropyl 1-(1-(6-carbamoyl-5-(4-(morpholine-4-carbonyl)phenylamino)-1,2,4-triazin-3-yl)piperidin-3-yl)hydrazine-1,2-dicarboxylate] | 7.00 to 8.00 | – |
| NC(=O)c1nnc(N2CCC[C@@H](n3ccc4cc(C5CC5)cc(F)c4c3=O)C2)nc1Nc1ccc(C(=O)N2CCOCC2)cc1 [Example 47, (R)-3-(3-(6-cyclopropyl-8-fluoro-1-oxoisoquinolin-2(1H)-yl)piperidin-1-yl)-5-(4-(morpholine-4-carbonyl)phenylamino)-1,2,4-triazine-6-carboxamide] | > 8.00 | – |
| NC(=O)c1nnc(N2CCC[C@@H](Oc3nccc4cc(C5CC5)cc(F)c34)C2)nc1Nc1ccc(C(=O)N2CCOCC2)cc1 [Example 48, (R)-3-(3-(6-cyclopropyl-8-fluoroisoquinolin-1-yloxy)piperidin-1-yl)-5-(4-(morpholine-4-carbonyl)phenylamino)-1,2,4-triazine-6-carboxamide] | 6.00 to 7.00 | – |
| CC(C)(C)c1ccc(C(=O)N[C@@H]2CCN(c3nnc(C(N)=O)c(Nc4ccc(C(=O)N5CCOCC5)cc4)n3)C2)cc1 [Example 49, (R)-3-(3-(4-tert-butylbenzamido)pyrrolidin-1-yl)-5-(4-(morpholine-4-carbonyl)phenylamino)-1,2,4-triazine-6-carboxamide] | 6.00 to 7.00 | – |
| NC(=O)c1nnc(N2CC[C@@H](NC(=O)c3ccccc3)C2)nc1Nc1ccc(C(=O)N2CCOCC2)cc1 [Example 50, (R)-3-(3-benzamidopyrrolidin-1-yl)-5-(4-(morpholine-4-carbonyl)phenylamino)-1,2,4-triazine-6-carboxamide] | 6.00 to 7.00 | – |
| NC(=O)c1nnc(N2CC[C@@H](NC(=O)C(F)(F)F)C2)nc1Nc1ccc(C(=O)N2CCOCC2)cc1 [Example 51, (R)-5-(4-(morpholine-4-carbonyl)phenylamino)-3-(3-(2,2,2-trifluoroacetamido)pyrrolidin-1-yl)-1,2,4-triazine-6-carboxamide] | 6.00 to 7.00 | – |
| Cc1cccc(Nc2nc(N3CCC[C@@H](NC(=O)c4ccc(C(C)(C)C)cc4)C3)nnc2C(N)=O)c1 [Example 54, (R)-3-(3-(4-tert-butylbenzamido)piperidin-1-yl)-5-(m-tolylamino)-1,2,4-triazine-6-carboxamide] | 5.00 to 6.00 | – |
| CC(C)(C)c1ccc(C(=O)N[C@@H]2CCCN(c3nnc(C(N)=O)c(Nc4ccc(S(C)(=O)=O)cc4)n3)C2)cc1 [Example 55, (R)-3-(3-(4-tert-butylbenzamido)piperidin-1-yl)-5-(4-(methylsulfonyl)phenylamino)-1,2,4-triazine-6-carboxamide] | > 8.00 | 7.00 to 8.00 |
| CC(C)(C)c1ccc(C(=O)N[C@@H]2CCCN(c3nnc(C(N)=O)c(Nc4ccc(-c5ncccn5)cc4)n3)C2)cc1 [Example 56, (R)-3-(3-(4-tert-butylbenzamido)piperidin-1-yl)-5-(4-(pyrimidin-2-yl)phenylamino)-1,2,4-triazine-6-carboxamide] | 6.00 to 7.00 | – |
| CC(C)(C)c1ccc(C(=O)N[C@@H]2CCCN(c3nnc(C(N)=O)c(Nc4cccc(-c5ncccn5)c4)n3)C2)cc1 [Example 57, (R)-3-(3-(4-tert-butylbenzamido)piperidin-1-yl)-5-(3-(pyrimidin-2-yl)phenylamino)-1,2,4-triazine-6-carboxamide] | 6.00 to 7.00 | – |
| CC(C)(C)c1ccc(C(=O)N[C@@H]2CCCN(c3nnc(C(N)=O)c(Nc4ccc(-c5ncco5)cc4)n3)C2)cc1 [Example 58, (R)-3-(3-(4-tert-butylbenzamido)piperidin-1-yl)-5-(4-(oxazol-2-yl)phenylamino)-1,2,4-triazine-6-carboxamide] | 7.00 to 8.00 | – |
| NC(=O)c1nnc(N2CCC[C@@H](NC(=O)N3CCOCC3)C2)nc1Nc1ccc(-c2ncco2)cc1 [Example 59, (R)—N-(1-(6-carbamoyl-5-(4-(oxazol-2-yl)phenylamino)-1,2,4-triazin-3-yl)piperidin-3-yl)morpholine-4-carboxamide] | 7.00 to 8.00 | – |
| NC(=O)c1nnc(N[C@@H]2CCCN(C(=O)C3CC3)C2)nc1Nc1ccc(C(=O)N2CCOCC2)cc1 [Example 64, (R)-3-(1-(cyclopropanecarbonyl)piperidin-3-ylamino)-5-(4-(morpholine-4-carbonyl)phenylamino)-1,2,4-triazine-6-carboxamide] | > 8.00 | – |
| C=CC(=O)N1CCC[C@@H](Nc2nnc(C(N)=O)c(Nc3ccc(C(=O)N4CCOCC4)cc3)n2)C1 [Example 65, (R)-3-(1-acryloylpiperidin-3-ylamino)-5-(4-(morpholine-4-carbonyl)phenylamino)-1,2,4-triazine-6-carboxamide] | > 8.00 | – |
